This is an account of results in patent US10307383B2, “Cosmetic composition for preventing or ameliorating hypersensitive skin comprising cedrol or derivatives thereof, or pharmaceutically acceptable salts thereof” (University of Seoul Industry Cooperation Foundation, priority 2017, dated 2019).

Format in all cases: in vivo, Balb/c mouse
The subject of series [1] is psoriasis induced mice (imiquimod). Kind of series: Cumulative score of PASI for ear thickness, keratosis and skin flair (development phase). To be noted: 100 mg/kg oral, 7 days, IMQ applied. How it is done: (§1) To investigate the delayed effect of cedrol, cedryl acetate, and alpha-cedrene on the development of psoriasis, total 5 groups of mice were prepared (8 mice/group). First, the hair of the entire back of the 8-week-old male Balb/c mouse whose immune system was weakened was removed by using a hair clipper (Kimlaube Hair pen 325,327, Rikei, Korea). In the middle of the shaved back of the mouse, 2 mg of imiquimod (3M Health Care Limited, England) was applied in the area of 2 cm×1.5 cm and also 1,125 mg of imiquimod was applied on the right ear of the mouse every day once a day to induce psoriasis.
The mice prepared above were divided into the distilled water treated group (IMQ), the cedrol treated group (C), the cedryl acetate treated group (CA), and the alpha-cedrene treated group (CE). At this time, the mice were orally treated with distilled water at the concentration of 200 μl/mouse and cedrol or its derivatives at the concentration of 200 μl/mouse (100 mg/kg). The day when distilled water or the compound administration started was recorded as day 0 and the administration was performed once a day for a week, during which photo-recording was performed every day (FIGS. 2A˜2D). In the meantime, instead of applying imiquimod, 40 mg of vaseline was applied on the back of the control group (CONT) and 22.5 mg of vaseline was applied on the right ear of the control group. […]

For series [2] the test system is unchanged. Kind of series: Skin hemorrhage spot reduction effect in the psoriasis induced mice. To be noted: for number of mice showing hemorrhage spots: IMQ applied, 8 mice/group. How it is done:
as §1
The mice prepared above were divided into the distilled water treated group (IMQ), the cedrol treated group (C), the cedryl acetate treated group (CA), and the alpha-cedrene treated group (CE). At this time, the mice were orally treated with distilled water at the concentration of 200 μl/mouse and cedrol or its derivatives at the concentration of 200 μl/mouse (100 mg/kg). The day when distilled water or the compound administration started was recorded as day 0 and the administration was performed once a day for a week, during which photo-recording was performed every day (FIGS. 2A˜2D). In the meantime, instead of applying imiquimod, 40 mg of vaseline was applied on the back of the control group (CONT) and 22.5 mg of vaseline was applied on the right ear of the control group. And the control group was orally administered with distilled water (200 μl/mouse).
The psoriasis induced mice orally administered with cedrol, cedryl acetate, and alpha-cedrene of Example <2-1> were observed by the naked eye, and the number of mice showing hemorrhage spots was counted. Hemorrhage spot is a symptom of psoriasis, and when IMQ is applied, the number of skin hemorrhage spots increases as time goes by.

Series [3] shares this test system. Kind of series: Accelerating effect on hair regrowth of the psoriasis induced mice. The settings on record: for number of mice showing hair regrowth: 8 mice/group. How it is done:
(§2) Imiquimod was applied to the psoriasis induced mice which had developed psoriasis for a week in Example <2-1>. The application was stopped 8 days after the application began. The groups CON and IMQ were treated with distilled water, the group C was treated with cedrol, the group CA was treated with cedryl acetate, the group CE was treated with alpha-cedrene alone at the concentration of 100 mg/kg in 200 μl, every day via oral-administration. Day 8 was the day the imiquimod application was stopped, since then the compounds were administered for 1 week once a day, during which photo-recording was performed (FIGS. 13A˜13D).
The psoriasis induced mice orally administered with cedrol, cedryl acetate, and alpha-cedrene of Example <3-1> were observed by the naked eye, and the number of mice showing hair regrowth was counted.

Series [4] shares this test system. Kind of series: Cumulative score of PASI for ear thickness, keratosis and skin flair (recovery phase). The settings on record: 100 mg/kg oral after termination of imiquimod. How it is done:
as §2
The psoriasis area severity index obtained in Examples <3-2> and <3-4> was accumulated to compare the psoriasis area severity index for ear thickness, keratosis and skin flair of the mouse groups respectively treated with cedrol, cedryl acetate, and alpha-cedrene via oral-administration.

The nature of series [5]: Weight changes in the psoriasis induced mice (oral administration during imiquimod application). The settings on record: 100 mg/kg oral once a day during application of IMQ; increase. As to the method:
as §1
The mice prepared above were divided into the distilled water treated group (IMQ), the cedrol treated group (C), the cedryl acetate treated group (CA), and the alpha-cedrene treated group (CE). […] The day when distilled water or the compound administration started was recorded as day 0 and the administration was performed once a day for a week, during which photo-recording was performed every day (FIGS. 2A˜2D). […]
To compare the weight changes in the psoriasis induced mice according to the oral administration of cedrol, cedryl acetate, and alpha-cedrene of Example <2-1>, the weight of each mouse was measured at the same time every day for a week.

Where [6] appears, read: day 7, 100 mg/kg oral, IMQ alone 5.
The mark [7] stands for this setting: day 13, 100 mg/kg oral after termination of imiquimod.
Setting [8] is: day 16, 100 mg/kg oral after termination of imiquimod, distilled water 5.

For the molecule `CC1=CC[C@@]23C[C@@H]1C(C)(C)[C@@H]2CC[C@H]3C` [alpha-cedrene, Alpha-cedrene], the “cumulative PASI (ear thickness, keratosis, skin flair) reduction effect, in words” value in series [1] is listed as “strongest reduction effect at a similar level”. For the same molecule, the “number of mice showing hemorrhage spots” value in series [2] (day 5, 100 mg/kg oral) was “two”; in series [2] (setting [6]), “one”. The “number of mice showing hair regrowth” value in series [3] (setting [7]) is listed as “one”; in series [3] (setting [8]), “all the mice”.

`CC(=O)O[C@]1(C)CC[C@@]23C[C@@H]1C(C)(C)[C@@H]2CC[C@H]3C` [cedryl acetate, Cedryl acetate]: the “cumulative PASI (ear thickness, keratosis, skin flair) reduction effect, in words” value in series [1] is recorded as “strongest reduction effect at a similar level”. Besides, in series [2] (100 mg/kg oral, 7 days), the “skin hemorrhage spot reduction effect, comparison in words” value is reported as “strongest reduction effect”. Moreover, the “number of mice showing hemorrhage spots” value in series [2] (day 5, 100 mg/kg oral) is reported as “one”; in series [2] (setting [6]), “one”. Further, the “number of mice showing hair regrowth” value in series [3] (day 14, 100 mg/kg oral after termination of imiquimod) is “one”; in series [3] (setting [8]) it was 7 mice.

`C[C@@H]1CC[C@H]2C(C)(C)[C@H]3C[C@@]12CC[C@@]3(C)O` [cedrol, Cedrol]: in series [4], the “cumulative PASI (ear thickness, keratosis, skin flair) recovery effect, in words” value is given as “strongest recovery effect”. Further, the “number of mice showing hemorrhage spots” value in series [2] (day 4, 100 mg/kg oral) is “one”; in series [2] (setting [6]), 3 mice. Further, in series [5], the “weight change for 7 days” value is recorded as 0.025 g. Also, the “accelerating effect on hair regrowth, comparison in words” value in series [3] (100 mg/kg oral after termination of imiquimod) is “strongest accelerating effect”. Besides, the figures for the “number of mice showing hair regrowth” value in series [3] (setting [7]) and in series [3] (setting [8]) were 2 mice and “all the mice”, respectively.
